In experiment [1] the test system is Vero. Put plainly: Photocytotoxicity was evaluated on the cell growth inhibition using Vero cells were at the concentration of 20 uM after 48 h of incubation. The experiment is classed as functional, Chlorocebus sabaeus.
The subject of experiment [2] is Human alphaherpesvirus 1. The experiment in a line: Photostability against herpes simplex virus type 1 after 5 min of irradiation with total light dose of 15 mW/cm**2. The experiment is classed as functional.
Experiment [3] deals with Vero. The experiment in a line: Photocytotoxicity was evaluated on the cell growth inhibition using Vero cells were at the concentration of 0.5 uM after 48 hr of incubation. Format: functional, Chlorocebus sabaeus.
Experiment [4] relates to Human alphaherpesvirus 1. The experiment in a line: Photostability against herpes simplex virus type 1 after 10 min of irradiation with total light dose of 30 mW/cm**2. The experiment is classed as functional.
In experiment [5] the test system is Human alphaherpesvirus 1. The experiment in a line: Photostability against herpes simplex virus type 1 after 3 min of irradiation with total light dose of 9 mW/cm**2. Format: functional.
Experiment [6] deals with Vero. Put plainly: Photocytotoxicity was evaluated on the cell growth inhibition using Vero cells were at the concentration of 10 uM after 48 hr of incubation. The experiment is classed as functional, Chlorocebus sabaeus.
For experiment [7], the system named is Vero. Put plainly: Photocytotoxicity was evaluated on the cell growth inhibition using Vero cells were at the concentration of 1 uM after 48 hr of incubation. The experiment is classed as functional, Chlorocebus sabaeus.
For experiment [8], the system named is Human alphaherpesvirus 1. Put plainly: Photostability against herpes simplex virus type 1 after 15 min of irradiation with total light dose of 45 mW/cm**2. Format: functional.
Experiment [9] has as its system Vero. The experiment in a line: Photocytotoxicity was evaluated on the cell growth inhibition using Vero cells were at the concentration of 5 uM after 48 hr of incubation. Format: functional, Chlorocebus sabaeus.
Experiment [10] relates to Vero. Put plainly: Photocytotoxicity was evaluated on the cell growth inhibition using Vero cells were at the concentration of 0.25 uM after 48 hr of incubation. The experiment is classed as functional, Chlorocebus sabaeus.
The subject of experiment [11] is Human alphaherpesvirus 1. Put plainly: Photovirucidal effect against herpes simplex virus type 1 after 5 mins of irradiation time with white light of 50 mW/cm2. The experiment is classed as functional.
The subject of experiment [12] is Vero. Put plainly: Concentration required for cellular cytotoxicity against Vero cells.
Experiment [13] has as its system Human alphaherpesvirus 1. The experiment in a line: Photovirucidal effect against herpes simplex virus type 1 after 15 mins of irradiation time with white light of 50 mW/cm2. Format: functional.
Experiment [14] deals with Vero. Put plainly: Photocytotoxicity was evaluated on the cell growth inhibition using Vero cells were at the concentration of 0.1 uM after 48 hr of incubation. Format: functional, Chlorocebus sabaeus.
The test system of experiment [15] is Human alphaherpesvirus 1. The experiment in a line: Photostability against herpes simplex virus type 1 after 1 min of irradiation with total light dose of 3 mW/cm**2. The experiment is classed as functional.
Experiment [16] relates to Vero. Put plainly: Photocytotoxicity was evaluated on the cell growth inhibition using Vero cells were at the concentration of 10 uM after 48 h of incubation. Format: functional, Chlorocebus sabaeus.
The test system of experiment [17] is Human alphaherpesvirus 1. The experiment in a line: Photovirucidal effect against herpes simplex virus type 1 with no irradiation time with white light of 50 mW/cm2. Format: functional.
For experiment [18], the system named is Vero. Put plainly: Photocytotoxicity was evaluated on the cell growth inhibition using Vero cells were at the concentration of 20 uM after 48 hr of incubation. The experiment is classed as functional, Chlorocebus sabaeus.

As usually defined, the CC50 is the concentration at which the toxic effect on the cells reaches its halfway point. Turning to `C[n+]1ccc(/C=C/c2cc3[nH]c2c(-c2ccccc2)c2nc(c(-c4ccccc4)c4nc(c(-c5ccccc5)c5ccc([nH]5)c3-c3ccccc3)C=C4)C=C2)cc1.[Cl-]`, the Viability in [1] is on record as 28%; in experiment [3], 98.3%; in [6], 62%; in [7], 97.3%; in [9], 90.8%; in experiment [10], 99.9%. The Viability in [14] came to 104.5%. Further, the Intensity in experiment [2] is given as 96%; in [4], 93%; in [5], 99%; in [8], 91%; in [15], 100%. Also, the Virus inactivation worked out at 0% in [11] and 48.99% in [13]. This molecule had a cytotoxic concentration (CC50) in experiment [12] of 13.5 µM.

Regarding `C[n+]1ccccc1/C=C/c1cc2[nH]c1c(-c1ccccc1)c1nc(c(-c3ccccc3)c3nc(c(-c4ccccc4)c4ccc([nH]4)c2-c2ccccc2)C=C3)C=C1.[Cl-]`, the Intensity was 93% in experiment [2]; 88% in experiment [4]; 94% in [5]; 83% in experiment [8]; 100% in experiment [15]. For the same molecule, the Viability in [3] is given as 101%; in experiment [16] it was 69%; in experiment [18] it was 18.8%; in experiment [7] it was 95.3%; in [9], 84.6%; in experiment [10], 103.3%. Also, the Viability in [14] turned out to be 104.8%. In addition, the values for the Virus inactivation in experiment [17], in experiment [11] and in experiment [13] were 27.8%, 96.98% and 99.61%, respectively. The CC50 in experiment [12] came out at 13.7 µM.

The values are drawn from ChEMBL document CHEMBL1140246, “Synthesis of cationic beta-vinyl substituted meso-tetraphenylporphyrins and their in vitro activity against herpes simplex virus type 1” (2005).
